Legend:
HAT = target: T1, HAT (Homo sapiens, UniProt O60235); assay: Enzyme kinetic determination of inhibition of HAT (Ki, Dixon method, fluorogenic substrate d-Cyclohexylalanin-Pro-Arg-7-Aminomethylcoumarin); assay type: biochemical; settings: HAT (R&D Systems), Tris pH 9.5, room temperature
T1 construct: purchased R&D Systems
T1 sequence (O60235 1-418): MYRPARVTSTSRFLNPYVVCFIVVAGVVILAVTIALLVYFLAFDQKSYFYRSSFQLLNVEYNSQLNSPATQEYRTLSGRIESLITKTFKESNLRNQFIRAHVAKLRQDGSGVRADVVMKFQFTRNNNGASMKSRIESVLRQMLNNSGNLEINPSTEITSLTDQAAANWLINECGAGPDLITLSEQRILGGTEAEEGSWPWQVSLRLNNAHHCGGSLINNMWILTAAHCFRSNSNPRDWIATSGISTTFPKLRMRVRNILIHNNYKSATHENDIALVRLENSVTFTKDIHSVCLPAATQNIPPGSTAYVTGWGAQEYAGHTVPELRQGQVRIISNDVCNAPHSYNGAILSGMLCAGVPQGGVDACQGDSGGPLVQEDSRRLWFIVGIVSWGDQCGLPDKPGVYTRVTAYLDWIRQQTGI
Description: (§1) Die Hemmwirkung der Inhibitoren für HAT (R&D Systems) und TMPRSS2 (katalytische Domäne exprimiert in E. coli) wurden unter Verwendung chromogener Substrate ermittelt. Für HAT wurde d-Cyclohexylalanin-Pro-Arg-7-Aminomethylcoumarin und für TMPRSS2 d-Cyclohexylalanin-Gly-Arg-p-Nitroanilin als Substrat verwendet. Die Bestimmung wurde mit einem Fluoreszenz-Plattenreader Safire^2 der Firma Tecan (λEx = 380 nm, λEm = 460 nm) für HAT und mit einem UV/Vis Plattenreader iEMS Reader MF 1401 der Firma LABSYSTEMS für TMPRSS2 bei 405 nm durchgeführt. Die Messung erfolgte in Tris-Puffer (50 mM Tris pH 9.5, 0,05% Brij 58 und 1 mg/ml bovines serum Albumin für HAT und 50 mM Tris pH 8.0, 0,154 M NaCl für TMPRSS2) auf Mikrotiter Platten bei Raumtemperatur. Die Inhibitorlösungen geeigneter Konzentration wurden in DMSO hergestellt. Im Messansatz wurden zu 2 µl Inhibitorlösung unterschiedlicher Konzentration jeweils 158 µl Puffer und 20 µl Substratlösung geben, und danach die Reaktion durch Zugabe von 20 µl Enzymlösung gestartet. Jeder Inhibitor wurde mit drei verschiedenen Substratkonzentrationen vermessen (50 µM, 100 µM, 200 µM für HAT und 45 µM, 90 µM und 181 µM für TMPRSS2). Die Inhibitorkonzentration wurde mindestens um den Bereich einer Größenordnung variiert und jeweils die steady-state Geschwindigkeit bestimmt. Die Berechnung der Ki-Werte erfolgte mit Hilfe eines Computerprogramms nach der Methode von Dixon.

TMPRSS2 = target: T2, TMPRSS2 (Homo sapiens, UniProt O15393); assay: Enzyme kinetic determination of inhibition of TMPRSS2 (Ki, Dixon method, chromogenic substrate d-Cyclohexylalanin-Gly-Arg-p-Nitroanilin); assay type: biochemical; settings: TMPRSS2 catalytic domain expressed in E. coli, Tris pH 8.0, room temperature
T2 construct: TMPRSS2 (katalytische Domäne exprimiert in E. coli); made in house; host or cells: E. coli
T2 sequence (O15393 256-492 limits assumed): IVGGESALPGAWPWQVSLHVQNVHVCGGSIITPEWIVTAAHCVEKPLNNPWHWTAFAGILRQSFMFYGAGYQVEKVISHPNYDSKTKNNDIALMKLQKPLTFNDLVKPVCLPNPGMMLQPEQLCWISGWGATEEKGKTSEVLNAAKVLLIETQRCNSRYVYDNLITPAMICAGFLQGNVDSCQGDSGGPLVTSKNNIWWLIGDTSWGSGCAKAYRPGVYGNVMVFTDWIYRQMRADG
Description: as §1

HAT-Flag = target: T3, HAT-Flag (Homo sapiens, UniProt O60235); assay: Inhibition of affinity-purified HAT-Flag: cleavage of the substrate Boc-Leu-Gly-Arg-AMC; assay type: biochemical; settings: 25 µM Boc-Leu-Gly-Arg-AMC, 2 h, 37° C, pH 7,4
T3 construct: made in house; host or cells: MDCK-HAT cells (MDCK stably transfected with pcEFTet-On/NEO and pTRE2pur-HAT-FLAG, doxycycline-inducible); isolated with the FLAG Tagged Protein Immunoprecipitation Kit
T3 sequence (O60235 1-418): T1 sequence (O60235 1-418)
Description: Die in MDCK-HAT-Zellen exprimierte Protease HAT besitzt zusätzlich ein C-terminales Flag-Epitop, welches die Affinitätsreinigung der Protease mit Hilfe von anti-FlagM2-Agarose (Sigma-Aldrich) ermöglicht. HAT-Flag liegt nach der Immunpräzipitation als aktive Protease vor. Die enzymatische Aktivität kann mit Hilfe des Fluoreszenzsubstrats Boc-Leu-Gly-Arg-AMC bestimmt werden.
Für Inhibitionsstudien wurde HAT-Flag zunächst mit Hilfe des FLAG®Tagged Protein Immunoprecipitation Kits aus MDCK-HAT-Zellen isoliert. Anschließend wurde die isolierte Protease mit 25 µM Boc-Leu-Gly-Arg-AMC in 50 mM Tris/HCl pH 7,4 in An- oder Abwesenheit der Inhibitoren (Endkonzentrationen 0,1 -10 µM) für 2 h bei 37° C inkubiert. Die Umsetzung des Substrates wurde mit Hilfe eines Fluoreszenz-Spektralphotomers bei 350 nm (Extinktion) sowie 460 nm (Emission) bestimmt. Als Kontrolle diente die Bestimmung der Proteaseaktivität in Abwesenheit eines Inhibitors (entspricht 0% Hemmung). Tabelle 2: Hemmwirkung synthetischer Serinproteasehemmstoffe auf die HAT-katalysierte Spaltung des Substrats Boc-Leu-Gly-Arg-AMC.

[1] = system: Influenzavirus-Isolat A/Memphis/14/96 (H1N1); assay type: cell-based; settings: Calu-3-Zellen (endogenous TMPRSS2), 24 h infection

**Q.** Which Ki (HAT) does the source give for `N=C(N)NCCC[C@@H](NS(=O)(=O)Cc1ccccc1)C(=O)N1CCC[C@H]1C(=O)NCc1ccc(C(=N)N)cc1` [Inhibitor 1] here?
**A.** 19 nM

**Q.** And the Ki (TMPRSS2)?
**A.** 3 nM

**Q.** And the “Prozent Hemmung (%)” value (HAT-Flag; Inhibitorkonzentration 0,1 µM)?
**A.** 22,3%

**Q.** What about the “Prozent Hemmung (%)” value (HAT-Flag; Inhibitorkonzentration 1 µM) of the same compound?
**A.** 70,7%

**Q.** What about the “Prozent Hemmung (%)” value (HAT-Flag; Inhibitorkonzentration 10 µM) of the same compound?
**A.** 93,1%

**Q.** What about the “Reduktion der Virusausbreitung” value [1] of the same compound?
**A.** konzentrationsabhängige Reduktion der Virusausbreitung

**Q.** With `N=C(N)c1ccc(CNC(=O)CNC(=O)[C@@H](CCCN=C(N)N)NS(=O)(=O)Cc2ccccc2)cc1` [Inhibitor 2] as the compound, how does the Ki (HAT) read?
**A.** 279 nM

**Q.** Which results are given for `N=C(N)c1ccc(CNC(=O)[C@H](CO)NC(=O)[C@@H](CO)NS(=O)(=O)Cc2ccccc2)cc1` [Inhibitor 3]?
**A.** Ki (HAT): 78 nM; Prozent Hemmung (%) (HAT-Flag; Inhibitorkonzentration 0,1 µM): 29,5%; Prozent Hemmung (%) (HAT-Flag; Inhibitorkonzentration 1 µM): 47,1%; Prozent Hemmung (%) (HAT-Flag; Inhibitorkonzentration 10 µM): 80,3%; Reduktion der Virusausbreitung [1]: konzentrationsabhängige Reduktion der Virusausbreitung

**Q.** Which Ki (HAT) does the source give for `N=C(N)c1ccc(CNC(=O)[C@H](CCCCNC(=O)OCc2ccccc2)NC(=O)[C@@H](CO)NS(=O)(=O)Cc2ccccc2)cc1` [Inhibitor 4] here?
**A.** 48 nM

**Q.** How did the Ki (HAT) turn out when `N=C(N)c1ccc(CNC(=O)[C@@H]2CCCN2C(=O)[C@@H](CC2CCCCC2)NS(=O)(=O)Cc2ccccc2)cc1` [Inhibitor 5] was run?
**A.** 77 nM

**Q.** What about the Ki (TMPRSS2) of the same compound?
**A.** 81 nM

**Q.** And the “Prozent Hemmung (%)” value (HAT-Flag; Inhibitorkonzentration 0,1 µM)?
**A.** 27%

**Q.** What about the “Prozent Hemmung (%)” value (HAT-Flag; Inhibitorkonzentration 1 µM) of the same compound?
**A.** 47,4%

**Q.** And the “Prozent Hemmung (%)” value (HAT-Flag; Inhibitorkonzentration 10 µM)?
**A.** 51,5%

**Q.** For `[H]/N=C(\N)c1ccc(CNC(=O)[C@@H]2CCCN2C(=O)[C@@H](Cc2ccccc2)NS(=O)(=O)Cc2ccccc2)cc1` [Inhibitor 6], which Ki (HAT) is on record?
**A.** 66 nM

**Q.** `N=C(N)c1ccc(CNC(=O)[C@@H]2CCCN2C(=O)[C@@H](CCc2ccccc2)NS(=O)(=O)Cc2ccccc2)cc1` [Inhibitor 7] was tested. Which Ki (HAT) did it give?
**A.** 55 nM

**Q.** With `N=C(N)c1ccc(CNC(=O)[C@@H]2CCCN2C(=O)[C@@H](CCCCNC(=O)OCc2ccccc2)NS(=O)(=O)Cc2ccccc2)cc1` [Inhibitor 8] as the compound, how does the Ki (HAT) read?
**A.** 49 nM

**Q.** `N=C(N)c1ccc(CNC(=O)[C@@H]2CCCN2C(=O)[C@@H](CCCCN)NS(=O)(=O)Cc2ccccc2)cc1` [Inhibitor 9] was tested. Which Ki (HAT) did it give?
**A.** 30 nM

**Q.** How did the Ki (HAT) turn out when `N=C(N)NCCCC[C@@H](NS(=O)(=O)Cc1ccccc1)C(=O)N1CCC[C@H]1C(=O)NCc1ccc(C(=N)N)cc1` [Inhibitor 10] was run?
**A.** 13 nM

**Q.** `N=C(N)c1ccc(CNC(=O)[C@@H]2CCCN2C(=O)C(CCc2ccccn2)NS(=O)(=O)Cc2ccccc2)cc1` (stereo partly shown) [Inhibitor 11] was tested. Which Ki (HAT) did it give?
**A.** 32 nM

**Q.** For `N#Cc1ccc(C[C@@H](NS(=O)(=O)Cc2ccccc2)C(=O)N2CCC[C@H]2C(=O)NCc2ccc(C(=N)N)cc2)cc1` [Inhibitor 12], which Ki (HAT) is on record?
**A.** 210 nM

**Q.** For `CCCCCCCCCC(=O)NCCCC[C@H](NC(=O)[C@@H](CCCNC(=N)N)NS(=O)(=O)Cc1ccccc1)C(=O)NCc1ccc(C(=N)N)cc1` [Inhibitor 14], which Ki (HAT) is on record?
**A.** 160 nM

**Q.** And the Ki (TMPRSS2)?
**A.** 8 nM

**Q.** `N=C(N)c1ccc(CNC(=O)CNC(=O)[C@@H](CO)NS(=O)(=O)Cc2ccccc2)cc1` [Inhibitor 15] was tested. Which Ki (HAT) did it give?
**A.** 1840 nM

**Q.** `CCCCCCCCCC(=O)NCCCC[C@H](NC(=O)[C@@H](CC1CCCCC1)NS(=O)(=O)Cc1ccccc1)C(=O)NCc1ccc(C(=N)N)cc1` [Inhibitor 16] was tested. Which Ki (HAT) did it give?
**A.** > 20000 nM

**Q.** How did the Ki (HAT) turn out when `N=C(N)c1ccc(CNC(=O)[C@H](CCCCNC(=O)OCc2ccccc2)NC(=O)[C@@H](CC2CCCCC2)NS(=O)(=O)Cc2ccccc2)cc1` [Inhibitor 17] was run?
**A.** 488 nM

**Q.** And the Ki (TMPRSS2)?
**A.** 84 nM
